# Data reported in patent US6514510B1, “Insecticidal and miticidal compositions” (BASF Aktiengesellschaft, priority 1996, dated 2003).
# Assays:
# [1] = test system: Kanzawa spider mite (Tetranychus kanzawai kishida) which are resistant to Compound A; test: Miticidal effect against female imagines of Kanzawa spider mite resistant to Compound A (leaf disk spray test); conditions: for LC50 (ppm): single active ingredient, female imago, Compound A-resistant colony, mortality two days after spray treatment, probit method
# Procedure: Round leaf disks (2 cm diameter) are cut out of a first leaf of kidney bean by using a leaf punch and 4 sheets of the leaf disks are placed on wet sanitary cotton on a PVC cup of 8 cm diameter.
# Each PVC cup is sprayed with 3.5 ml of the test solution by using a rotary spray tower (manufactured by Mizuho Scientific Co., Ltd.) and stored in a constant temperature chamber held at 25±° C. (32 individuals are tested per concentration, 4-5 concentrations are evaluated per formulation and 2 performances are repeated). Two days after treatment, the number of living and dead female imagines of Kanzawa spider mite (Tetranychus kanzawai kishida) on the leaf disk is investigated and the mortality (%) is calculated according to the formula shown hereinbelow. From these mortality data, the LC50 values are obtained by conventional probit method. [formula]
# For the above-mentioned values larger than 100, the larger value indicates a stronger synergistic action. For the value equal to 100, an additive action is indicated. For the values less than 100, the lesser value indicates a larger antagonistic action. A more detailed description of the calculation of the co-toxicity coefficient by the above-mentioned Sun and Johnson's method is the following. […] [formula]
# [2] = test system: susceptible strain of spider mite; test: Effect of Compound A against a susceptible strain of spider mite; assay type: in vivo; conditions: not mentioned in the table
Structure (SMILES),LC50 (ppm) [1] [ppm],"resistance against Compound A ([1]; resistant strain versus susceptible strain, LC50 values) [fold]",LC50 value [2]
"CC1(C)C(C=C(Cl)Cl)C1C(=O)OCc1cccc(Oc2ccccc2)c1 (stereo not drawn) [Permethrin, 3-phenoxybenzyl (1RS,3RS; 1RS,3RS)-3-(2,2-dichlorovinyl)-2,2-dimethylcyclopropanecarboxylate]",440,–,–
"CCOc1ccc(C(C)(C)COCc2cccc(Oc3ccccc3)c2)cc1 [Ethofenprox, 2-(4-ethoxyphenyl)-2-methylpropyl 3-phenoxybenzyl ether]",620,–,–
"CC1(C)C(C(=O)OC(C#N)c2cccc(Oc3ccccc3)c2)C1(C)C (racemic) [Fenpropathrin, (RS)-α-cyano-3-phenoxybenzyl 2,2,3,3-tetramethyl-cyclopropanecarboxylate]",290,–,–
"Cc1c(COC(=O)[C@@H]2[C@H](/C=C(\Cl)C(F)(F)F)C2(C)C)cccc1-c1ccccc1 (racemic) [Bifenthrin, 2-methylbiphenyl-3-ylmethyl (Z)-(1RS,3RS)-3-(2-chloro-3,3,3-trifluoroprop-1-enyl)-2,2-dimethylcyclopropanecar-boxylate]",20,–,–
"CC1(C)[C@H](C(=O)O[C@@H](C#N)c2cccc(Oc3ccccc3)c2)[C@@H]1/C=C(\Cl)C(F)(F)F (racemic) [Cyhalothrin, (RS)-α-cyano-3-phenoxybenzyl (Z)-(1RS,3RS)-3-(2-chloro-3,3,3-trifluoropropenyl)-2,2-dimethylcyclopropanecarboxylate]",590,–,–
"CC1(C)C(C=C(Cl)Cl)C1C(=O)OC(C#N)c1ccc(F)c(Oc2ccccc2)c1 (racemic) [Cyfluthrin, (RS)-α-cyano4-fluoro-3-phenoxybenzyl (1RS,3RS; 1RS,3SR)-3-(2,2-dichlorovinyl)-2,2-dimethylcyclopropanecarboxylate]",1500,–,–
"CC(C)[C@H](Nc1ccc(C(F)(F)F)cc1Cl)C(=O)OC(C#N)c1cccc(Oc2ccccc2)c1 (stereo partly drawn) [Fluvalinate, (RS)-α-cyano-3-phenoxy-benzyl N-(2-chloro-α,α,α,α-trifluoro-p-tolyl)-D-valinate]",180,–,–
"CC1(C)C(C=C(Cl)Cl)C1C(=O)OC(C#N)c1cccc(Oc2ccccc2)c1 (racemic) [Cypermethrin, (RS)-α-cyano-3-phenoxybenzyl (1RS,3RS,1RS,3RS)-3-(2,2-dichlorovinyl)-2,2-dimethylcyclopro-panecarboxylate]",2500,–,–
"CCOCn1c(-c2ccc(Cl)cc2)c(C#N)c(Br)c1C(F)(F)F [Compound A, 4-bromo-2-(4-chlorophenyl)-1-(ethoxymethyl)-5-(trifluoromethyl)-pyrrole-3-carbonitrile]",1500,~300,about 5 ppm
